Entries after “also recorded” stand apart in the source; their conditions may differ. Non-standard residues stand in square brackets, D forms with d. Residues, ends and D or L forms follow the SMILES beside them. Sar = CNCC(=O)O

Data set [1] deals with primary hippocampal neurons. As to the kind of experiment: Intraneuronal Aβ accumulation (Western blot of neuronal lysates, densitometry). The data set is classed as cell-based, C57bL/6 mice. The note with it: 10 μM Aβ40 with or without compound, p<0.01. Here is the method: P0-P1 pups of C57bL/6 mice were killed by decapitation and brains were removed in aseptic conditions. To establish cultures of primary hippocampal neurons the hippocampi were dissected from both hemispheres under AmScope stereoscopic microscope (AmScope, Chino, Calif.). Fragments of tissue were placed in the ice-cold Ca^2+ and Mg^2+ free Hank's balanced salt solution (HBSS) and gently cut further into fine pieces which were then treated with 0.05% trypsin in HBSS for 10 min at 37° C. to obtain cell suspension. Following addition of 0.1% type-I-S trypsin inhibitor and 0.05% DNase I, the cell suspension was centrifuged at 500×g for 30 sec. The resulting pellet was triturated, centrifuged again at 500×g for 5 min and resuspended in the minimal essential medium (MEM) supplemented with heat-inactivated 10% fetal bovine serum (FBS), 0.5 mM glutamine, streptomycin (50 μg/ml) and penicillin (50 U/ml). The cell suspension was then filtered through a 70-μm mesh, and the cells were counted using hematocytometer (Hausser Scientific, Horsham, Pa.). The cells were seeded on poly-L-lysine coated 12-well plates. For biochemical analysis 5×10^5 cells were seeded directly on the bottom of each well whereas for immunohistochemistry a removable, poly-L-lysine coated round coverslip was placed on the bottom of the well and the number of seeded cells was reduced to 1×10^5 per well. […]
On the technique in general: A western blot detects proteins with antibodies after separation by electrophoresis.

The test system of data set [2] is primary hippocampal neurons. In words: Accumulation of aggregated FITC labeled Aβ1-40 on the surface of neurons. The data set is classed as cell-based, C57bL/6 mice. The note with it: 18 DIV neurons, FITC labeled Aβ1-40, treated with compound. Here is the method:
P0-P1 pups of C57bL/6 mice were killed by decapitation and brains were removed in aseptic conditions. To establish cultures of primary hippocampal neurons the hippocampi were dissected from both hemispheres under AmScope stereoscopic microscope (AmScope, Chino, Calif.). Fragments of tissue were placed in the ice-cold Ca^2+ and Mg^2+ free Hank's balanced salt solution (HBSS) and gently cut further into fine pieces which were then treated with 0.05% trypsin in HBSS for 10 min at 37° C. to obtain cell suspension. Following addition of 0.1% type-I-S trypsin inhibitor and 0.05% DNase I, the cell suspension was centrifuged at 500×g for 30 sec. […] The cell suspension was then filtered through a 70-μm mesh, and the cells were counted using hematocytometer (Hausser Scientific, Horsham, Pa.). […]
Coverslip inserts covered by the primary hippocampal neuro^ns were immersed three times in PBS at 37° C., and then in 80% ice-cold methanol for 10 min to fix the neurons, and washed again three times in PBS. […] Biotinylated secondary antibodies (1:1,000) followed by Cy3 conjugated streptavidine (1:500) were used to detected binding of primary Abs to their antigens. […] Immunostained neurons were analyzed under 80i Nikon fluorescent microscope (Nikon Corp. Tokyo, Japan). […]

Data set [3] can be described thus: Thioflavine-T aggregation assay, compound incubated alone (own fibril formation). The data set is classed as physicochemical. The note with it: compound alone at 100 μM. Here is the method: Peptoid modified derivatives of the KLVFFA (SEQ ID NO: 4) sequence were tested using Thioflavine-T aggregation assay to determine whether or not they are capable of forming fibrils themselves. […] In these treatment experiments, 100 μM Aβ40 or Aβ42 was mixed with 1-100 μM of the investigated compound and incubated up to 14 days. […] They were incubated alone or in the presence of peptoid modified derivatives of KLVFFA (SEQ ID NO: 4) sequence at concentrations of 1-100 μM. In addition, peptoid modified derivatives of KLVFFA (SEQ ID NO: 4) sequence were incubated alone as indicated above at the concentration of 100 μM. At the indicated intervals, samples containing 15 μg of incubated peptides were added to 1 mL of 50 mM/L glycine, pH 9.2 and 2 μM/L of Thioflavin-T (Sigma Chemical, Co.; St. Louis, Mo.). Fluorescence was measured at excitation 435 nm and emission 485 nm in a Hitachi F-2000 fluorescence spectrophotometer. A time scan of fluorescence was performed and three values after the decay reached a plateau (280, 290, 300 seconds) were averaged. The background fluorescence of 40 μl of Tris buffer added to 2 μM/L of Thioflavin-T solution was subtracted. Samples were run in duplicate. Differences in amount of fibrils formed by different peptides at particular time points were evaluated by one-way ANOVA followed by Tukey post hoc test.

As to `CC(C)CC(NC(=O)C(CCCCN)NC(=O)CN)C(=O)NC(C(=O)NC(Cc1ccccc1)C(=O)N(C)CC(=O)NC(C)C(N)=O)C(C)C` (stereo not shown) [GKLVFNmgA] (H-GKLVF[Sar]A-NH2; configuration not given here), in data set [1] (6 hr), the “less Aβ accumulated in neurons after six hr of exposure” value is recorded as 29.8%. In addition, the “less Aβ accumulated in neurons after 24 hr of exposure” value in data set [1] (24 hr) stood at 49.3%. Also, the “accumulation of aggregated Aβ1-40 on the surface of neurons” value in data set [2] is “Reduction in the number of AB aggregates; also recorded: Reduced accumulation”. Also, the “fibril formation by the compound itself” value in data set [3] is reported as “did not form fibrils itself; also recorded: does not form fibrils itself”.
